# Test results reported in patent US10105339B2, “Ingenol derivatives in the reactivation of latent HIV” (priority 2012, dated 2018).
# Key:
# CD4 HIV-1 receptor = test: Downregulation of CD4 receptor on human lymphocytes and monocytes/macrophages (flow cytometry); assay type: cell-based; settings: summary statement for lymphocytes and monocytes/macrophages (human and monkey cells tested)
# From the text: It is verified in this test that ingenol derivatives of formula 1, when Z=Z2, at concentrations that activate HIV from latency in Jlat cells in example 3, downregulate the expression of CD4 cell receptor on the surface of HIV-human and SIV-pig-tail monkey CD4+T lymphocytes and macrophages. For this experiment PBMC cells from human and monkeys were isolated from peripheral blood with isolation through Ficoll-Hypaque density gradient (mixture of high density hydrophilic neutral polysaccharides that readily dissolves in aqueous solution. “Ficoll” is a trademark of GE Healthcare Bio-Sciences, USA). Thus, PBMC cells from human and monkeys, at concentration of 10^6 cells/mL, were cultured in RPMI medium with 10% fetal bovine serum for 24 hours and adhered cells (monocytes differentiating into macrophages) were separated from the cell supernatant which contained total lymphocytes. Those two distinct populations of cells were exposed to different concentrations of A, B and C derivatives of the invention, and left in culture for 72 hours. After exposure, the cells were stained with specific lymphocyte monoclonals (anti-CD3) and monocytes/macrophages (anti-CD14) simultaneously with an anti-CD4. Thus, the cells were centrifuged at 1000 G for 3 minutes and washed with the same PBS volume (without Ca^2+ and Mg^2+, Cat. No. 9240, Irvine Scientific, USA) containing 2% fetal bovine serum. This wash was repeated 3 times and the cells were suspended in 1×PBS containing a 1/1000 dilution of relevant antibodies and left to incubate for 30 min at 4° C. until being read in flow cytometry. After incubation, 30,000 cells were read in a BD-Excalibur flow cytometer (from Beckton Dickinson and co., USA) and the populations were separated and the CD4 receptor density was estimated at different concentrations of the B derivative, assuming cell density without B derivative as 100%. […]
# [1] = system: HIV-1 latent virus in PBMC cells of patient; test: Activation of latent HIV in PBMC from patient under anti-retroviral treatment (semi-nested real time PCR of intracellular vRNA); assay type: cell-based; settings: 72 hours
# Experimental: It was tested, in this experiment, the ability of ingenol derivative, of formula I, wherein Z=Z2, mentioned as B, of activating latent cells from patients who were already under anti-retroviral treatment for more than 1 year with undetectable viral load. A patient (identified as MLV) was selected, which had already been under treatment with zidovudine+lamivudine (AZT+3TC) and efavirenz for over 14 months, with undetectable viral load and CD4>500 cells/mm^3. 20 mL of blood was collected from the patient in a EDTA (ethylene diamine tetra acetic acid) tube and PBMC cells were isolated, which were placed in RPMI culture medium with 10% fetal bovine serum and 50 IU/mL of IL2 (interleukin 2), and grown in 2 bottles with 5 mL of identical cells (106/mL) with different selective compositions. 10 μM efavirenz (antiviral) was added to the control bottle to block viral replication that would eventually arise from cultured cells. In another test bottle both efavirenz (10 μM) and the B derivative of the invention (1 μM) were included. […]
smiles,measurement,setting,value
"CC1=CC23C(=O)C(C=C(CO)C(O)C2(O)C1OC(=O)/C=C/c1ccccc1)C1C(CC3C)C1(C)C (centres unmarked) [A, Ingenol 3-cinnamate]",downregulation of the main HIV receptor (CD4) on the surface of infection targeted cells,CD4 HIV-1 receptor,able to downregulate
"O=C1Nc2ccc(Cl)cc2[C@@](C#CC2CC2)(C(F)(F)F)O1 [efavirenz, reference compound]",intracellular HIV-1 vRNA,"[1]; 10 μM efavirenz alone (control bottle), FIG. 7",did not produce intracellular vRNA
"CCCCCC(=O)OC1C(C)=CC23C(=O)C(C=C(CO)C(O)C12O)C1C(CC3C)C1(C)C (centres unmarked) [B, Ingenol 3-caproate]",intracellular HIV-1 vRNA,"[1]; 1 μM B derivative plus 10 μm efavirenz, FIG. 8",emergence of intracellular HIV-1 vRNA
same,downregulation of the main HIV receptor (CD4) on the surface of infection targeted cells,CD4 HIV-1 receptor,able to downregulate
"CCCCCCCCCCCC(=O)OC1C(C)=CC23C(=O)C(C=C(CO)C(O)C12O)C1C(CC3C)C1(C)C (centres unmarked) [C, ingenol 3-dodecanoate]",downregulation of the main HIV receptor (CD4) on the surface of infection targeted cells,CD4 HIV-1 receptor,able to downregulate
